Results as given in patent US20050119288A1, “Dosing schedule for a novel anticancer agent” (Pfizer Inc, priority 2003, published 2005).
Read-outs that look alike come from different tables or passages of the source.

How the values were obtained:
[1] = tested on: SK-OV-3 tumors; experiment: SK-OV-3 xenograft tumor growth in athymic mice; format: in vivo, human; settings: for % Growth inhibition / Tumor volume Day 1 (Mean ± SE) / Tumor volume Day 18 (Mean ± SE): PO
Source text: The in vivo anti-tumor activity of the compounds for use in the methods of the present invention can be determined by the amount of inhibition of tumor growth by a test compound relative to a control. The tumor growth inhibitory effects of various compounds can be measured according to the method of Corbett T. H., et al., “Tumor Induction Relationships in Development of Transplantable Cancers of the Colon in Mice for Chemotherapy Assays, with a Note on Carcinogen Structure”, Cancer Res., 35, 2434-2439 (1975) and Corbett T. H., et al., “A Mouse Colon-tumor Model for Experimental Therapy”, Cancer Chemother. Rep. (Part 2)”, 5, 169-186 (1975), with slight modifications. Tumors can be induced in the left flank of mice by subcutaneous (sc) injection of 1-5 million log phase cultured tumor cells suspended in 0.1 ml RPMI 1640 medium. After sufficient time has elapsed for the tumors to become palpable (˜100-150 mm^3 in size/5-6 mm in diameter) the test animals (athymic female mice) are treated with test compound (formulated at a concentration of 10 to 15 mg/ml in 5 Gelucire or 0.5% methyl cellulose) by the intravenous (iv) or oral (po) route of administration once or twice daily for 7 to 29 consecutive days. In order to determine an anti-tumor effect, the tumor is measured in millimeters with a Vernier caliper across two diameters and the tumor size (mm^3) is calculated using the formula: Tumor size (mm^3)=(W×W)/2×L (L=length and W=width), according to the methods of Geran, R. I., et al. “Protocols for Screening Chemical Agents and Natural Products Against Animal Tumors and Other Biological Systems”, Third Edition, Cancer Chemother. Rep., 3, 1-104 (1972). Results are expressed as percent inhibition, according to the formula: Inhibition Growth (%)=[100-{(% Growth of Treated/% Growth of Control)×100}]. The flank site of tumor implantation provides reproducible dose/response effects for a variety of chemotherapeutic agents, and the method of measurement (tumor diameter) is a reliable method for assessing tumor growth rates.
(§1) SK-OV-3 cells obtained from ATCC (Rockville, Md.) were grown in McCoy's medium containing 10% fetal bovine serum and pen/strep. Exponentially growing cells were harvested and inoculated SC (5 million cells/animal) into female athymic mice. The tumor measurements and body weight changes were obtained on days 1, 3, 6, 10, 13 and 18. Tumor volume was calculated by the following formula: Tumor volume (mm^3)═(W×W)/2×L (L=length & W=width). Blood samples (˜50 μl) were isolated at 0.5, 1, 2, 4 and 8 hrs after dosing on day 18 for PK-analysis. Tumors were isolated at 0.5 hr post-dosing on day 18 for PD-analysis by ELISA. The p-erbB2 reduction, tumor volume and body weight changes in control and test compound treated animals are shown below in Table 2.

[2] = Pharmacokinetics in SK-OV-3 tumor-bearing mice; format: in vivo; settings: for Cave0-4 h / AUC(0-t) / Cmax: PO; for AUC(0-t) / Cmax: female, athymic, mouse, blood, po; for AUC(0-t): read-out: AUC0-4 h; for Cmax: read-out: Cmax 0.5 h
Experimental: as §1

[3] = molecular target: erbB2 receptor autophosphorylation (Homo sapiens, UniProt P04626); experiment: p-erbB2 reduction in MDA-MB-453 tumors by ELISA; format: in vivo
Experimental: Study Design: Exponentially growing MDA-MB-453 cells (DMEM/F12 with 10% FBS, and pen/strep [Gibco]) were harvested and inoculated SC (5 million cells/animal) into female athymic mice. MDA-MB-453 tumor bearing mice (˜100 mm^3 in size, N=64) were randomized in 8 groups consisting 8 animals each. Animals were treated with vehicle (PO, QD or BID) or the test compound (PO, QD or BID) as described in Table 6. The tumor measurements and body weight changes were obtained on days 1, 3, 7, 10, 14, 17, 21, 24, and 29. Tumor volume was calculated by the following formula: Tumor volume (mm^3)═(W×W)/2×L (L=length & W=width). Blood samples (˜50 μl) were isolated at 0.5, 1, 2, 4 and 8 hrs after dosing on day 29 for PK-analysis. Tumors were isolated at 0.5 hr post-dosing on day 29 for PD-analysis by ELISA.

erbB2 receptor autophosphorylation, sequence (P04626 23-1255): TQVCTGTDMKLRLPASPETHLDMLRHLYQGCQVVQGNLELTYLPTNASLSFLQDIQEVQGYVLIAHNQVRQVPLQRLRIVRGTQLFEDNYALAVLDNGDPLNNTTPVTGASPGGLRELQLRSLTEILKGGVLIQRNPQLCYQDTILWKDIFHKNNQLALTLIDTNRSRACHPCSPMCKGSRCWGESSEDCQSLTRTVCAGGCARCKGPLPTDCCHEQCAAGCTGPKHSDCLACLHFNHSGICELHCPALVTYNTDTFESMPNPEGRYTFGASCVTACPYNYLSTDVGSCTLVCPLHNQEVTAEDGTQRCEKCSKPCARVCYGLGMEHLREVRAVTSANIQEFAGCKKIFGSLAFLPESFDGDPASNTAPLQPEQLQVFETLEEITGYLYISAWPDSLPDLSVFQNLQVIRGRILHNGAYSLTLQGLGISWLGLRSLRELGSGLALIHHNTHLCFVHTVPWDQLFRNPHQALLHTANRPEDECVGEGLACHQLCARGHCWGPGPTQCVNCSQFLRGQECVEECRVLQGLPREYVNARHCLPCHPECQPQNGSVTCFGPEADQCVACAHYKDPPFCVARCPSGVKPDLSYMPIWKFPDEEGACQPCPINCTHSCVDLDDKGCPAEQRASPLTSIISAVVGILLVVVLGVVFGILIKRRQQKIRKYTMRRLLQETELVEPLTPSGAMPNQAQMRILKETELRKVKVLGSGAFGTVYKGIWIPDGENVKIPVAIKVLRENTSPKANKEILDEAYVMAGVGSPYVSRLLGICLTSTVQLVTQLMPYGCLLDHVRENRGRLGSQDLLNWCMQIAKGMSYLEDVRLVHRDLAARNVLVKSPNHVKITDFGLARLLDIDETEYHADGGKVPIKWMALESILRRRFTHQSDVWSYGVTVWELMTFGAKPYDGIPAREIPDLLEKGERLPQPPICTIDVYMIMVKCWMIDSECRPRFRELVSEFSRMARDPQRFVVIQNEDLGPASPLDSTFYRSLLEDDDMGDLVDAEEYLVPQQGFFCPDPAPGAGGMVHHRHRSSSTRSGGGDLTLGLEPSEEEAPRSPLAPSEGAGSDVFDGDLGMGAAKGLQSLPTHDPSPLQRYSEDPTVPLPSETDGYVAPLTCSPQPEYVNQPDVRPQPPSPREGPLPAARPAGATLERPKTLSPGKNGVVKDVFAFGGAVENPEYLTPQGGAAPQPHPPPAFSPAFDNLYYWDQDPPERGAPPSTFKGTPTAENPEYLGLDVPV

COCC(=O)NC/C=C/c1ccc2ncnc(Nc3ccc(Oc4ccc(C)nc4)c(C)c3)c2c1 [Test Compound, E-2-Methoxy-N-(3-{4-(3-methyl-4-(6-methyl-pyridin-3-yloxy)-phenylamino)-quinazolin-6-yl}-allyl)-acetamide]
tumor growth inhibition, 100 mg/kg BID relative to 200 mg/kg QD ([1]; 18 days): 2 fold
% Growth inhibition ([1]; BID 25 mg/kg (Total Daily Dose = 50 mg/kg), 18 days): 29%
% Growth inhibition ([1]; BID 25 mg/kg (Total Daily Dose = 50 mg/kg), 18 days, listed as test compound): Approximately 29%
Tumor volume Day 1 (Mean ± SE) ([1]; BID 25 mg/kg): 93 ± 12 mm^3
Tumor volume Day 18 (Mean ± SE) ([1]; BID 25 mg/kg): 281 ± 42 mm^3
% Growth inhibition ([1]; BID 50 mg/kg (Total Daily Dose = 100 mg/kg), 18 days): 45%
Tumor volume Day 1 (Mean ± SE) ([1]; BID 50 mg/kg): 94 ± 13 mm^3
Tumor volume Day 18 (Mean ± SE) ([1]; BID 50 mg/kg): 218 ± 38 mm^3
% Growth inhibition ([1]; BID 100 mg/kg (Total Daily Dose = 200 mg/kg), 18 days): 71%
Tumor volume Day 1 (Mean ± SE) ([1]; BID 100 mg/kg): 94 ± 13 mm^3
Tumor volume Day 18 (Mean ± SE) ([1]; BID 100 mg/kg): 115 ± 24 mm^3
% Growth inhibition ([1]; QD 50 mg/kg, 18 days): 2%
% Growth inhibition ([1]; QD 50 mg/kg, 18 days, listed as test compound): non-efficacious
Tumor volume Day 1 (Mean ± SE) ([1]; QD 50 mg/kg): 98 ± 14 mm^3
Tumor volume Day 18 (Mean ± SE) ([1]; QD 50 mg/kg): 390 ± 38 mm^3
% Growth inhibition ([1]; QD 100 mg/kg, 18 days): 23%
Tumor volume Day 1 (Mean ± SE) ([1]; QD 100 mg/kg): 97 ± 14 mm^3
Tumor volume Day 18 (Mean ± SE) ([1]; QD 100 mg/kg): 306 ± 36 mm^3
% Growth inhibition ([1]; QD 200 mg/kg, 18 days): 36%
Tumor volume Day 1 (Mean ± SE) ([1]; QD 200 mg/kg): 98 ± 14 mm^3
Tumor volume Day 18 (Mean ± SE) ([1]; QD 200 mg/kg): 254 ± 39 mm^3
Cave0-4 h ([2]; 25 mg/kg, BID, day 18): 390 ng/mL
AUC0-4 h and Cave0-4 h, QD group compared to BID dosed group ([2]; 50 mg/kg QD vs 25 mg/kg BID, day 18): approximately 2 fold
Cave0-4 h ([2]; 50 mg/kg, BID, day 18): 1050 ng/mL
Cave0-4 h ([2]; 50 mg/kg, QD, day 18): 853 ng/mL
Cave0-4 h ([2]; 100 mg/kg, BID, day 18): 2330 ng/mL
Cave0-4 h ([2]; 100 mg/kg, QD, day 18): 4080 ng/mL
Oral absorption ([2]; 200 mg/kg QD dosing): non-linear
Cave0-4 h ([2]; 200 mg/kg, QD, day 18): 3780 ng/mL
Cmax, 50 mg/kg QD compared to 25 mg/kg BID ([2]; day 18): approximately 2 fold
AUC(0-t) ([2]; 25 mg/kg, BID, day 18): 1560 ng·h/mL
Cmax ([2]; 25 mg/kg, BID, day 18): 1780 ng/mL
AUC(0-t) ([2]; 50 mg/kg, BID, day 18): 4180 ng·h/mL
Cmax ([2]; 50 mg/kg, BID, day 18): 3880 ng/mL
AUC(0-t) ([2]; 50 mg/kg, QD, day 18): 3410 ng·h/mL
Cmax ([2]; 50 mg/kg, QD, day 18): 3640 ng/mL
AUC(0-t) ([2]; 100 mg/kg, BID, day 18): 9330 ng·h/mL
Cmax ([2]; 100 mg/kg, BID, day 18): 8060 ng/mL
AUC(0-t) ([2]; 100 mg/kg, QD, day 18): 16300 ng·h/mL
Cmax ([2]; 100 mg/kg, QD, day 18): 12100 ng/mL
AUC(0-t) ([2]; 200 mg/kg, QD, day 18): 15100 ng·h/mL
Cmax ([2]; 200 mg/kg, QD, day 18): 10200 ng/mL
inhibition in vivo at 25 mg/kg ([3]; MDA-MB-453, po, 0.5 h, PO, BID 25 mg/kg (Total Daily Dose = 50 mg/kg), 0.5 hr post-dosing on day 29): 69%
inhibition in vivo at 50 mg/kg ([3]; MDA-MB-453, po, 0.5 h, PO, BID 50 mg/kg (Total Daily Dose = 100 mg/kg), 0.5 hr post-dosing on day 29): 75%
inhibition in vivo at 100 mg/kg ([3]; MDA-MB-453, po, 0.5 h, PO, BID 100 mg/kg (Total Daily Dose = 200 mg/kg), 0.5 hr post-dosing on day 29): 79%
inhibition in vivo at 50 mg/kg ([3]; MDA-MB-453, po, 0.5 h, PO, QD 50 mg/kg, 0.5 hr post-dosing on day 29): 78%
inhibition in vivo at 100 mg/kg ([3]; MDA-MB-453, po, 0.5 h, PO, QD 100 mg/kg, 0.5 hr post-dosing on day 29): 88%
inhibition in vivo at 200 mg/kg ([3]; MDA-MB-453, po, 0.5 h, PO, QD 200 mg/kg, 0.5 hr post-dosing on day 29): 92%
reduction of p-erbB2 ([3]; span over QD (50-200 mg/kg) and BID (25-100 mg/kg) dosings): 69-92%
